{"source": "ChEMBL document CHEMBL6121044", "about": "“Discovery of Novel Spirocyclic MAT2A Inhibitors Demonstrating High In Vivo Efficacy in MTAP-Null Xenograft Models” (J Med Chem, 2025)", "key": {"[1]": {"target": "S-adenosylmethionine synthase isoform type-2 (Homo sapiens, UniProt P31153)", "sequence (P31153 whole entry, canonical isoform)": "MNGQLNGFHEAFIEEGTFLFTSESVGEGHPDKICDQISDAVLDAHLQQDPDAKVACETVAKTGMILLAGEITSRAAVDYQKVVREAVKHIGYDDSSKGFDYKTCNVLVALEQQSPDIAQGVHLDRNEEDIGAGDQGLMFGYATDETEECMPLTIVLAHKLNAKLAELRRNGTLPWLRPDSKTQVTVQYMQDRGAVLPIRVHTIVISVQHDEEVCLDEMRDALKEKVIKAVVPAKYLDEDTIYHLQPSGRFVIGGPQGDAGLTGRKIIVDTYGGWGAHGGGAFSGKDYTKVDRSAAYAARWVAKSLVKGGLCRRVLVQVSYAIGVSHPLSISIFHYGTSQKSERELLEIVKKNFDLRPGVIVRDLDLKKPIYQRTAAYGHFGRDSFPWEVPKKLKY", "test": "Inhibition of MAT2A in MTAP-knock out human HCT-116 cells assessed as inhibition of PRMT5-mediated symmetric […]-arginine (SDMA) level", "type": "cell-based"}, "[2]": {"test": "Half life in male ICR mouse at 2 mg/kg, iv measured upto 24 hrs by LC-MS/MS analysis", "type": "ADME, organism-based", "conditions": "in vivo"}, "[3]": {"test": "Half life in beagle dog at 10 mg/kg, po measured upto 24 hrs upto 24 hrs by LC-MS/MS analysis", "type": "ADME, organism-based, Canis lupus familiaris", "conditions": "in vivo"}, "[4]": {"test": "Hepatic metabolic stability in human hepatocyte assessed as half life", "type": "ADME, cell-based", "conditions": "hepatocytes"}, "[5]": {"test": "Apparent permeability across apical to basolateral in human Caco-2 cells", "type": "ADME, cell-based", "conditions": "read-out: permeability"}, "[6]": {"target": "Cytochrome P450 3A4 (Homo sapiens, UniProt P08684)", "sequence (P08684 whole entry)": "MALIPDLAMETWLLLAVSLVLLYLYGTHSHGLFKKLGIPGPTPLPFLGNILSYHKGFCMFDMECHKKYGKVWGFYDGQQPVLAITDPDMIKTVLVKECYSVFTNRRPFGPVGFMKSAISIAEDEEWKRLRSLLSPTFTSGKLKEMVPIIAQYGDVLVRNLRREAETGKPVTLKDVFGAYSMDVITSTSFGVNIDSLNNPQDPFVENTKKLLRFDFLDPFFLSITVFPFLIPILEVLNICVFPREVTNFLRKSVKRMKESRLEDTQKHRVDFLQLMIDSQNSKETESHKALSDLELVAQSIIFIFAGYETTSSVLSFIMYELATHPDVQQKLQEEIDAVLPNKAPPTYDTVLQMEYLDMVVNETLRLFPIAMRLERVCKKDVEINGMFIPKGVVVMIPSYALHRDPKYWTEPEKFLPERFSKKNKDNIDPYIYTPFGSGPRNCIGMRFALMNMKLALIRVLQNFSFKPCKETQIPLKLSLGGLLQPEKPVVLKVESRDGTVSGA", "test": "Inhibition of CYP3A4 (unknown origin)", "type": "ADME"}, "[7]": {"tested_on": "HCT-116", "test": "In vivo antitumor activity against MTAP-deleted human HCT-116 cells xenografted mouse model assessed as tumor growth inhibition at 10 mg/kg, po qd measured after 18 days relative to control", "type": "functional", "conditions": "HCT-116, 432 h, time 18 day, read-out: TGI"}, "[8]": {"tested_on": "HCT-116", "test": "In vivo antitumor activity against MTAP-deleted human HCT-116 cells xenografted mouse model assessed as tumor growth inhibition at 30 mg/kg, po qd measured after 18 days relative to control", "type": "functional", "conditions": "HCT-116, 432 h, time 18 day, read-out: TGI"}, "[9]": {"test": "In vivo antitumor activity against MTAP-deleted human KP-4 cells xenografted mouse model assessed as tumor growth inhibition at 30 mg/kg, po qd measured after 18 days relative to control", "type": "functional", "conditions": "KP-4, 432 h, time 18 day, read-out: TGI"}, "[10]": {"tested_on": "KP-4", "test": "In vivo antitumor activity against human KP-4 cells xenografted mouse model assessed as tumor growth inhibition at 90 mg/kg, po qd measured after 18 days relative to control", "type": "functional", "conditions": "KP-4, 432 h, time 18 day, read-out: TGI"}, "[11]": {"test": "Volume of distribution at steady state in male ICR mouse at 2 mg/kg, iv measured upto 24 hrs by LC-MS/MS analysis", "type": "ADME, organism-based", "conditions": "in vivo, read-out: Vdss"}, "[12]": {"tested_on": "HCT-116", "test": "In vivo antitumor activity against MTAP-deleted human HCT-116 cells xenografted mouse model assessed as tumor growth inhibition at 1 mg/kg, po qd measured after 18 days relative to control", "type": "functional", "conditions": "HCT-116, 432 h, time 18 day, read-out: TGI"}, "[13]": {"tested_on": "HCT-116", "test": "In vivo antitumor activity against MTAP-deleted human HCT-116 cells xenografted mouse model assessed as tumor growth inhibition at 3 mg/kg, po qd measured after 18 days relative to control", "type": "functional", "conditions": "HCT-116, 432 h, time 18 day, read-out: TGI"}, "[14]": {"test": "Toxicity in mouse xenografted with MTAP-deleted human HCT116 cells assessed as body weight loss at 10 mg/kg, po qd measured after 18 days relative to control", "type": "organism-based", "conditions": "in vivo, 432 h, time 18 day"}, "[15]": {"test": "In vivo antitumor activity against MTAP-deleted human KP-4 cells xenografted mouse model assessed as tumor growth inhibition at 10 mg/kg, po qd measured after 18 days relative to control", "type": "functional", "conditions": "KP-4, 432 h, time 18 day, read-out: TGI"}, "[16]": {"test": "In vivo antitumor activity against MTAP-deleted human NCI-H838 cells xenografted mouse model assessed as tumor growth inhibition at 3 mg/kg, po qd measured after 18 days relative to control", "type": "functional", "conditions": "NCI-H838, 432 h, time 18 day, read-out: TGI"}, "[17]": {"test": "In vivo antitumor activity against MTAP-deleted human NCI-H838 cells xenografted mouse model assessed as tumor growth inhibition at 10 mg/kg, po qd measured after 18 days relative to control", "type": "functional", "conditions": "NCI-H838, 432 h, time 18 day, read-out: TGI"}, "[18]": {"test": "Chronic toxicity in male ICR mouse assessed as body weight loss at 10 mg/kg, po once daily measured after 19 days relative to control", "type": "organism-based", "conditions": "in vivo, 456 h, time 19 day"}, "[19]": {"test": "Chronic toxicity in female ICR mouse assessed as body weight loss at 10 mg/kg, po once daily measured after 19 days relative to control", "type": "organism-based", "conditions": "in vivo, 456 h, time 19 day"}}, "data": [{"smiles": "[2H]C([2H])([2H])NC1=NC(=O)[C@]2(CCc3ncccc32)c2cc(C(C)(F)F)ccc21", "values": [{"measurement": "IC50", "setting": "[1]", "value": 2, "unit": "nM"}, {"measurement": "half-life", "setting": "[2]", "value": 1.94, "unit": "h"}, {"measurement": "half-life", "setting": "[3]", "value": 4.47, "unit": "h"}, {"measurement": "half-life", "setting": "[4]", "value": "> 3.61", "unit": "h"}, {"measurement": "Papp A→B", "setting": "[5]", "value": 5.12, "unit": "×10⁻⁶ cm/s"}, {"measurement": "IC50", "setting": "[6]", "value": "> 10000", "unit": "nM"}, {"measurement": "inhibition in vivo at 10 mg/kg", "setting": "[7]", "value": 72.1, "unit": "%"}, {"measurement": "inhibition in vivo at 30 mg/kg", "setting": "[8]", "value": 85.4, "unit": "%"}, {"measurement": "inhibition in vivo at 30 mg/kg", "setting": "[9]", "value": 62, "unit": "%"}, {"measurement": "inhibition in vivo at 90 mg/kg", "setting": "[10]", "value": 74, "unit": "%"}]}, {"smiles": "[2H]C([2H])([2H])NC1=NC(=O)[C@]2(CCc3ncccc32)c2cc(C(F)(F)F)ccc21", "values": [{"measurement": "IC50", "setting": "[1]", "value": 1, "unit": "nM"}, {"measurement": "half-life", "setting": "[2]", "value": 2.52, "unit": "h"}, {"measurement": "half-life", "setting": "[3]", "value": 6.09, "unit": "h"}, {"measurement": "Vd", "setting": "[11]", "value": 1.7, "unit": "L/kg"}, {"measurement": "half-life", "setting": "[4]", "value": "> 3.61", "unit": "h"}, {"measurement": "Papp A→B", "setting": "[5]", "value": 13.6, "unit": "×10⁻⁶ cm/s"}, {"measurement": "IC50", "setting": "[6]", "value": "> 10000", "unit": "nM"}, {"measurement": "inhibition in vivo at 1 mg/kg", "setting": "[12]", "value": 61.9, "unit": "%"}, {"measurement": "inhibition in vivo at 3 mg/kg", "setting": "[13]", "value": 85.9, "unit": "%"}, {"measurement": "Activity", "setting": "[14]", "value": "~ 15%"}, {"measurement": "inhibition in vivo at 10 mg/kg", "setting": "[15]", "value": 80, "unit": "%"}, {"measurement": "inhibition in vivo at 3 mg/kg", "setting": "[16]", "value": 61.5, "unit": "%"}, {"measurement": "inhibition in vivo at 10 mg/kg", "setting": "[17]", "value": 78.1, "unit": "%"}, {"measurement": "Activity", "setting": "[18]", "value": 9.77, "unit": "%"}, {"measurement": "Activity", "setting": "[19]", "value": 2.36, "unit": "%"}]}]}
